# Source: patent publication US20090054382A1, “COMPOSITIONS OF PHOSPHODIESTERASE TYPE IV INHIBITORS” (priority 2005, published 2009)
# Experiments:
# [1] = tested on: TNF-α release from human PBMCs; assay: Cell based assay for TNF-α release, PDE IV inhibitor in combination with p38 MAP Kinase inhibitors; settings: inhibiting TNF-α release from human PBMCs
# Description: Blood was collected in heparin or EDTA vacutainers from healthy human volunteers and Peripheral Blood Mononuclear Cells isolated using Ficoll Hypaque gradient. The cells were resuspended in serum free RPMI 1640 medium at a concentration of 2 million cells/ml.). […] of this cell suspension was co-incubated with 20 μl of compound, alone or in combination, for 10 min in a flat bottom 96 well microtiter plate. Compounds were dissolved in DMSO initially and diluted in medium for a final concentration of 0.2% DMSO. LPS (1 μg/ml, final concentration) was then added at a volume of 10 μl per well. After 30 min, 20 μl of fetal calf serum (final concentration of 10%) was added to each well. Cultures were incubated overnight at 37° C. in an atmosphere of 5% CO2 and 95% air. Supernatant were then removed and tested by ELISA for TNF-α release using a commercial kit (e.g. BD Biosciences). The level of TNF-α in treated wells was compared with the vehicle treated controls and inhibitory potency of compound was expressed as IC50 values calculated from the percent inhibition values by using Graph pad prism.
# [2] = tested on: LPS induced airway hyperreactivity and neutrophil count in BAL; assay: In-vivo assay of PDE-IV inhibitors in combination with muscarinic receptor antagonists (LPS airway hyperreactivity and neutrophilia); settings: Wistar rats, intratracheal, combination with Tiotropium
# Description: MRA (1 ng/kg to 1 mg/kg) and PDE-IV inhibitor (1 ng/kg to 1 mg/kg) were instilled intratracheally under anesthesia either alone or in combination.
# Wistar rats weighing 200±20 gm were used in the study. Rats had free access to food and water. On the day of experiment, animals were exposed to lipopolysaccharide (LPS, 100 μg/ml) for 40 min. One group of vehicle treated rats was exposed to phosphate buffered saline (PBS) for 40 min. […] The respiratory parameters were recorded online using Biosystem XA software, (Buxco Electronics, USA). Penh, at any chosen dose of acetylcholine was expressed as percent of PBS response and using a nonlinear regression analysis PC100 (2 folds of PBS value) values were computed. […]
# PC100LPS=PC100 in vehicle treated and LPS challenged group PC100TEST=PC100 in group treated with a given dose of test compound PC100PBS=PC100 in vehicle treated group challenged with PBS Immediately after the airway hyperreactivity response was recorded, animals were sacrificed and bronchoalveolar lavage (BAL) performed. […] Total leukocyte and Neutrophil counts were expressed as cell count (millions cells ml^−1 of BAL). […]
smiles,measurement,setting,value
"COc1cc(C2=NO[C@]3(CCOC3)C2)ccc1OC(F)F (single isomer, unassigned) [Compound No. 266, (5S or 5R)-3-[4-(Difluoromethoxy)-3-methoxyphenyl]-1,7-dioxa-2-azaspiro[4.4]non-2-ene]",Indication,[1],synergistic response
same,synergy with muscarinic receptor antagonist (MRA),[2],synergy
